Measured values: patent publication US5691328A, “Phosphoethanolamine conjugates of vitamin D compounds” (Clarion Pharmaceuticals Inc., priority 1996, dated 1997)
Like-named read-outs stand apart in the source and are kept apart here.

Legend:
[1] = test system: PMA-Induced Inflammation in Ears of CD-1 Mice; assay: PMA-induced inflammation in mouse ears; assay type: in vivo, mouse (CD-1); details: 6 hours
Experimental: A common in vivo model for the evaluation of anti-inflammatory agents is PMA-induced inflammation in mouse ears. This method is described in "Pharmacological Methods in the Control of Inflammation", Joseph Y. Chang and Alan J. Lewis (eds), Alan R. Liss, Inc., N.Y., pp 221-223. In this assay, edema, which is a characteristic of inflammation, is quantified by determining ear thickness or ear weight approximately 6 hours after applying PMA to the ear.
1. Mice: Male CD-1, 21-24 g (Product Number 3002) obtainable from Harlan Sprague Dawley, Indianapolis, Ind., USA;
a. Prepare 0.01% (w/v) PMA in a mixture of equal volumes of acetone and ethanol;
b. Prepare 0.01% (w/v) PMA and 5% (w/v) test compound in a mixture of equal volumes of acetone and ethanol;
c. Divide 9 mice into 3 groups of 3 mice each;
d. Leave one group of mice untreated;
e. Treat the second group of mice by applying 20 μL of PMA solution to both ears using a micropipetter;
f. Treat the third group of mice by applying 20 μL of PMA solution to the right ear and 20 μL of PMA/test compound solution to the left ear;
g. Wait 6 hours and euthanize the mice in a CO2 chamber;
h. Cut the ears and punch out circles of 6-mm diameter; and
I. Measure the weight of three appropriate ear punches in the same group together.

[2] = test system: HT-29 Human Colon Cancer Cells; assay: in vitro HT-29 Human Colon Cancer Cells inhibition assay (sulforhodamine B); assay type: cell-based; details: at concentrations above 30 μM; 48 hours; FIG. 2
Excerpt: FIG. 2 is a graphical representation of results from an in vitro HT-29 Human Colon Cancer Cells inhibition assay of a compound of the invention, designated CPR 2005, in comparison with Vitamin D3.
(§1) 1. Human tumor cell lines, obtainable from the American Type Culture Collection (ATCC):
b. HT-29 (ATCC HTB-38): a human colon caminoma cell line (attachment dependent).
b. For cell line 1-b: 1:1 DMEM and Ham's F-12 (DMEM/F12) plus 10% FBS.
(§2) 3. Standard protocol for culturing cell lines: in T-75 or T-150 flasks; 37° C.; 95% air, 5% CO2; 100% humidity;
a. […]
(§3) h. Read absorbance at 562 nm using a standard 96-well microtiler plate reader. Absorbance readings are linear with dye concentrations below 1.8 absorbance units. To reduce absorbance, decrease wavelength at which measurements are taken;
(§4) single point reading: the higher the absorbance, the higher the […]; […]
(§5) initial control cell number (ICCN)--no test compound present in culture medium, end point was determined at the time of treatment;
(§6) final control cell number (FCCN)--no test compound present in culture medium, end point was determined at […] after treatment;
(§7) final cell number (FCN)--test compound present in culture medium, end point was determined at 48 hours after treatment; […]
(§8) FCN=A(test compound, 48 hours)-A(Background) [formula] where A is absorbance. […]

[3] = test system: RAW 264.7 murine monocyte/macrophage line; assay: Assay for Anti-inflammatory Activity by Inhibition of Macrophage Chemiluminescence (respiratory burst, PMA-stimulated mouse macrophages); assay type: cell-based
Excerpt: The RAW 264.7 cell line (available from the ATCC under accession no. TIB 71) is a murine monocyte/macrophage line the cells of which show many of the differentiative functions of a macrophage. Like macrophages, the cells are capable of phagocytosis and undergo an oxidative burst (increased oxygen consumption) and production of oxygen radicals (e.g., superoxide) in response to appropriate signals. Agents that inhibit the activation of these cells in vitro, so as to inhibit the respiratory burst and corresponding production of oxygen radicals associated with the activation, are therefore inhibitors of macrophage activation and critical steps in inflammatory processes.
The respiratory burst and corresponding production of oxygen radicals that accompany macrophage activation can be measured in a variety of ways, including chemiluminescence based on the reaction of the oxygen radicals with luminol added to the culture medium (see M. A. Trush et at., 1978, "The Generation of Chemiluminescence by Phagocytic Cells." Methods in Enzymology 57: 462-494). Indeed, chemiluminescence generated from luminol in the culture medium of macrophage cell lines is recognized in the art as a marker of macrophage activation.
1. Cell line: Raw 264.7 (ATCC TIB-71, attachment dependent);
2. Culture medium: DMEM with 10% FBS;
as §2
a. Cell line is passaged when approximately 80% confluent; with trypsin (1 mg/ml) and EDTA ([…] in ca-MG free Hank's balanced salt solution); at a 1:4 to 1:5 split;
b. All procedures are performed aseptically in a class II biological safety cabinet using standard BL-2 containment procedures. In order to prevent genetic drift in stock cell lines, fresh cultures are prepared at approximately monthly intervals with cells thawed from liquid nitrogen storage.
a. After cell passage, count cells with a hemacytometer;
b. Adjust cell concentration to approximately 1,000,000 cells per mL;
c. Suspend cells in DMEM lacking phenol red and without FBS;
d. Pipette 1 mL of cell suspension into a standard luminometer cuvet (12×75), commercially obtainable from Analytical Luminescence Laboratories, San Diego, Calif., USA;
e. Add luminol to final concentration of 0.2 μM;
f. Add test compound dissolved in phosphate buffered saline (PBS), or in DMSO for the comparative compound, vitamin D3, for final concentration levels ranging from 0 to 30 μM;
g. Add 100 nanograms of phorbol myristate acetate (PMA); and
h. Wait 1 minute and read photo counts (i.e., luminescence) on a Monolight 2010 luminometer available from Analytical Luminescence Laboratories, San Diego.
Background--no test compound present; no PMA present;
Control--no test compound present;
Calculate: [formula] where L is luminescence. 6.

[4] = test system: PAM-212 Mouse Keratinocytes; assay: in vitro PAM-212 Mouse Keratinocytes inhibition assay (anti-psoriasis); assay type: cell-based; details: at concentrations above 30 μM, 48 hours, FIG. 3
Excerpt: FIG. 3 is a graphical representation of results from an in vitro PAM-212 Mouse Keratinocytes inhibition assay of a compound of the invention, designated CPR 2005, in comparison with vitamin D3.
Psoriasis is a chronic inflammatory dermatosis characterized, in part, by hyper-proliferation of keratinocytes and release of pro-inflammatory cytokines. Compounds that reduce hyperproliferation of keratinocytes in vitro are likely to have utility in the control of psoriasis.
1. Cell line: PAM-212 murine keratinocyte cell line isolated and cultivated from newborn BALB/c mice (see S. H. Yuspa et al., Cancer Research, Vol. 40, pp. 4694-4703, December, 1980) that appears to retain many characteristics of normal keratinocytes.
2. Culture medium: 1:1 DMEM and Ham's F-12 with 10% FBS.
3. Culture conditions are the same as those described in part 3 of the assay protocol for anti-tumor activity.
4. Methodology is the same as that described in part 4 of the assay protocol for anti-tumor activity, except that, with reference to part 4(b) of the assay protocol for anti-tumor activity, cell concentration in this case is adjusted to 1,000 cells per 100 μL (rather than 5,000 cells per 100 μL).
5. End point determination and analysis are as described in part 5 of the assay protocol for anti-tumor activity.

[5] = test system: MDA-MB-231 Human Breast Cancer Cell; assay: in vitro MDA-MB-231 Human Breast Cancer Cell inhibition assay (sulforhodamine B); assay type: cell-based; details: at 100 μM; 48 hours; FIG. 1
Excerpt: FIG. 1 is a graphical representation of results from an in vitro MDA-MB-231 Human Breast Cancer Cell inhibition assay of a compound of the invention, designated CPR 2005, in comparison with vitamin D3.
as §1
a. MDA-MB-231 (ATCC HTB-26): an estrogen receptor negative human breast carcinoma cell line (attachment dependent); and
a. For cell line 1-a: Dulbecco's Modified Eagle's Medium (DMEM) plus 10% Fetal Bovine Serum (FBS); and
as §2
a. […]
as §3, §4, §5, §6, §7, §8

[6] = Mus musculus, RAW264.7, read-out: % Inhibition of Respiratory Burst

For C=C1CC[C@H](OP(=O)([O-])OCC[N+](C)(C)C)C/C1=C/C=C1\CCC[C@]2(C)[C@@H]([C@H](C)CCCC(C)C)CC[C@@H]12 [CPR 2005, (5Z,7E)-(3S)-9,10-Secocholesta-5,7,10(19)-trien-3-phosphocholine], which “Average Weight of Punched Ear, left ear” value ([1]; CPR 2005 + PMA (left ear), PMA (right ear, 30 mg), PMA both ears: left 34, right 28, untreated 12, 20 μL of 0.01% PMA / 5% (w/v) test compound) is on record?
Its value is 15 mg.

And the “inhibition of PMA-induced inflammation in mouse ear” value ([1]; topical, 5% (w/v) test compound)?
Its value is “marked inhibition”.

What about the “inhibition of HT-29 cell growth” value [2] of the same molecule?
Its value is “marked inhibition”.

And the inhibition at 1 µM ([3]; RAW264.7, Concentration 1 μM, PMA-Stimulated Mouse Macrophages, read-out: % Inhibition of Respiratory Burst)?
Its inhibition at 1 µM is 45%.

What about the inhibition at 3 µM ([3]; RAW264.7, Concentration 3 μM, PMA-Stimulated Mouse Macrophages, read-out: % Inhibition of Respiratory Burst) of the same molecule?
The inhibition at 3 µM was 90%.

And the inhibition at 10 µM ([3]; RAW264.7, Concentration 10 μM, PMA-Stimulated Mouse Macrophages, read-out: % Inhibition of Respiratory Burst)?
The inhibition at 10 µM was 98%.

What about the inhibition at 30 µM ([3]; RAW264.7, Concentration 30 μM, PMA-Stimulated Mouse Macrophages, read-out: % Inhibition of Respiratory Burst) of the same molecule?
The inhibition at 30 µM was 99%.

And the inhibition of luminescence ([3]; at concentrations above 1 μM, PMA-stimulated)?
Its inhibition of luminescence is “marked inhibition”.

And the “inhibition of keratinocyte proliferation” value [4]?
Its value is “marked inhibition”.

What about the “inhibition of MDA-MB-231 cell growth” value [5] of the same molecule?
Its value is “marked inhibition”.

Which results are given for C=C1CC[C@H](O)C/C1=C/C=C1\CCC[C@]2(C)[C@@H]([C@H](C)CCCC(C)C)CC[C@@H]12 [Vitamin D3, 9, 10-secocholesta-5,7,10(19)-trien-3-ol, reference compound]?
inhibition at 1 µM [3, 6]: 10%; inhibition at 3 µM [3, 6]: 9%; inhibition at 10 µM [3, 6]: 2%; inhibition at 30 µM [3, 6]: 12%
